Measured values: patent US12570606B2, “Myeloperoxidase imaging agents” (The General Hospital Corporation, priority 2016, dated 2026)

Key:
MPO activity = assay: Irritant contact dermatitis (PMA) in vivo FRI; parameters: species or system mouse; conditions: wildtype mice
Description: Female C57Bl/6J (wildtype, Jackson laboratories, Bar Harbor, Me.) and MPO-knockout (KO, Jackson laboratories) mice were treated topically with 0.08 μmol Phorbol 12-myristate 13-acetate (PMA, Sigma, St. Louis, Mo.) on one hind-paw and with vehicle on the other to induce irritant contact dermatitis. This model is well described in the literature and triggers rapid inflammation with influx of neutrophils into the skin. 6 hours after induction, mice were injected intravenously with either 2 nmol of Compound 3 or the non-specific analogue, Compound 18. 1 hour later, 2.5 μg SA-647 was injected intravenously to bind to the biotinylated Compound 3. Mice underwent in vivo imaging using a dedicated in vivo FRI system as described above in Example 11.

MPO [1] = biological target: T1, MPO (Mus musculus, UniProt P11247); assay: CFA paw inflammation PET imaging and treatment by MPO inhibitor PF-1355; format: in vivo; parameters: from tissue; host or cells: inflamed forepaw of living mice (CFA)
T1 sequence (P11247 139-718): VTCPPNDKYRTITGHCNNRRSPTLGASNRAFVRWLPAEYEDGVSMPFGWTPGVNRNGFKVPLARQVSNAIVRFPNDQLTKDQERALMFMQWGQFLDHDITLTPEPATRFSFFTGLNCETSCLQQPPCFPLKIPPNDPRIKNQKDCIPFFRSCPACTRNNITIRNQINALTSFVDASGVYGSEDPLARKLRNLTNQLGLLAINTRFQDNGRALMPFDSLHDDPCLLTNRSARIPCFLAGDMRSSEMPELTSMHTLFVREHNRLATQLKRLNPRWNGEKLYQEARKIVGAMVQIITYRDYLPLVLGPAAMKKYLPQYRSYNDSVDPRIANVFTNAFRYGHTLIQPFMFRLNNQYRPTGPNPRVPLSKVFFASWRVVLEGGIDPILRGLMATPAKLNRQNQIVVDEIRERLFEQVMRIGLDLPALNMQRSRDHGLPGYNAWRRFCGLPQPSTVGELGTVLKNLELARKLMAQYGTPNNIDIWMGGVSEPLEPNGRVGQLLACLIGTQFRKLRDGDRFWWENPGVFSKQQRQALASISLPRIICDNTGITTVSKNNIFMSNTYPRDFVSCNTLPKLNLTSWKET
Description: Each pair contained one treated and one untreated, number of pairs, n=3. The 1/1 emulsion of CFA/PBS (40 μL) was injected subcutaneously on the dorsal side of one forepaw under isoflurane anesthesia, and PBS (40 μL) was injected on the other forepaw as control. After 1 h, the treated group was given PF-1355 (50 mg/kg) by gavage, then treated every 6 h for another 3 times, and the control group was treated with vehicle (10 mL/kg) accordingly. After 24 h, 300-600 uCi of Compound 9 was injected intravenously. After another 2 h, each pair of the mice was scanned side by side.
After validating the efficacy of the MPO Compound 9 in matrigel experiments, the specificity of the agent in inflammation was investigated. Complete Freund's Adjuvant (CFA) or its emulsion can cause inflammation when injected subcutaneously to the animal. The CFA emulsion was injected to one dorsal side of the forepaw of the mouse and the other side was injected with PBS. After 24 h, Compound 9 was injected intravenously and scanned 2 h after injection. […] To further verify the specificity of the MPO Compound 9, the mice were treated with MPO inhibitor PF-1355 1 h after CFA emulsion injection and continuously every 6 h afterwards for 4 times before injecting the Compound 9. The control group was treated with vehicle after CFA injection. Then each pair of the mice from treated and untreated groups were scanned.

MPO [2] = biological target: T2, MPO (Homo sapiens, UniProt P05164); assay: MPO-PET matrigel implantation imaging in mice; format: in vivo, mouse; conditions: for Background, organ uptake and defluorination: matrigel PET imaging in mice
T2 sequence (P05164 49-745): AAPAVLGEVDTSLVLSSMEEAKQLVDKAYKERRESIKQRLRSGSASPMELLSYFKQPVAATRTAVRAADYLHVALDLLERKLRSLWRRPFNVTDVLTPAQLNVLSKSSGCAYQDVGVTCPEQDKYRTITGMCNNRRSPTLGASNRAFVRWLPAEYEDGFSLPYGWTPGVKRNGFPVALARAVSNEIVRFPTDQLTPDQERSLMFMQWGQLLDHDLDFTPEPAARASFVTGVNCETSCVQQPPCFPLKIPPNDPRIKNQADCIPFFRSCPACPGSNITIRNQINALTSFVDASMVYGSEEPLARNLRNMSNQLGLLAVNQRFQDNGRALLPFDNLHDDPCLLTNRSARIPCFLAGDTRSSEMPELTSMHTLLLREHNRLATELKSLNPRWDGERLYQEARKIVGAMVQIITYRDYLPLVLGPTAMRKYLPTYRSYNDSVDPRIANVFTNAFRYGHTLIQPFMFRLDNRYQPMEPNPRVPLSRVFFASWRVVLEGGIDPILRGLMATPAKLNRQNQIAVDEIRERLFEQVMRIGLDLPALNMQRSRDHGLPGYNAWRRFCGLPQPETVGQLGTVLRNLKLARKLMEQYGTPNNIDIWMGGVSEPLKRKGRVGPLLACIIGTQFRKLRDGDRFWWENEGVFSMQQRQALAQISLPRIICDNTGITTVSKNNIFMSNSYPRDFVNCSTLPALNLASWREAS
Description: 300 μL of 1:1 mixture of matrigel and minimal essential medium (MEM) containing GOX and/or different concentrations of MPO (0, 15 μL, 30 μL) was injected subcutaneously into the ventral aspect of the thighs of the mouse. After 30 min, 300-600 μCi of MPO Compound 9 was injected intravenously. After 2 h, the mice were scanned using PET scanning.
To validate the efficacy of the MPO PET agents for in vivo applications, matrigel implantation experiments were performed by embedding MPO in matrigel along with glucose oxidase (GOX) as H2O2 donor. Matrigel is a gelatinous protein mixture that is liquid at 0° C. but forms a gel at body temperature while remaining diffusible to molecules from the bloodstream when injected into living animals (see e.g., Chen et al, Radiology, 2006, 240(2):473-481). The MPO/matrigel mixtures were injected subcutaneously to the thighs of the mice followed by injection of the MPO PET tracers 30 min later. […] The signal of MPO side was around 1.7 fold higher compared to that of control side.
To verify the specificity of Compound 9 over MPO, different concentrations of MPO (0, 15 μL, 30 μL) were embedded in matrigel for the implantation experiments.

O=C(CCCC[C@@H]1SC[C@@H]2NC(=O)N[C@@H]21)N[C@@H](Cc1c[nH]c2ccccc12)C(=O)NCCc1c[nH]c2ccccc12 [Compound 18, N—((S)-1-((2-(1H-indol-3-yl)ethyl)amino)-3-(1H-indol-3-yl)-1-oxopropan-2-yl)-5-((3aS,4S,6aR)-2-oxohexahydro-1H-thieno[3,4-d]imidazol-4-yl)pentanamide]
Fluorescence intensity, PMA-treated hind-paw (MPO activity): 50.1±5.8 RFU | Fluorescence intensity, vehicle-treated hind-paw (MPO activity): 28.4±5.5 RFU

COc1ccc(OC)c(-c2cc(=O)[nH]c(=S)n2CC(N)=O)c1 [PF-1355]
Ratio of PF-1355 treated to untreated (MPO [1]; mean of three pairs): .410 | % Inhibition (MPO [1]; mean of three pairs, PF-1355 50 mg/kg by gavage, Compound 9 PET): 59% | Compound 9 uptake in inflamed paw, PF-1355 treated (MPO [1]; mean of three pairs, PF-1355 50 mg/kg by gavage): .0622 SUV | Compound 9 uptake in inflamed paw, PF-1355 treated (MPO [1]; mouse pair 1, PF-1355 50 mg/kg by gavage): .0555 SUV | Compound 9 uptake in inflamed paw, PF-1355 treated (MPO [1]; mouse pair 2, PF-1355 50 mg/kg by gavage): .0736 SUV | Compound 9 uptake in inflamed paw, PF-1355 treated (MPO [1]; mouse pair 3, PF-1355 50 mg/kg by gavage): .0575 SUV

O=C(NC(Cc1c[nH]c2ccc(O)cc12)C(=O)NCCc1c[nH]c2ccc(O)cc12)c1ccc([18F])cc1 (centres unmarked) [Compound 7]
PET signal of MPO side (MPO [2]; matrigel MPO thigh vs control thigh): low signal | Background, organ uptake and defluorination (MPO [2]): high heart uptake

O=C(Cc1c[nH]c2ccc(O)cc12)NC(Cc1c[nH]c2ccc(O)cc12)C(=O)NCCCCCC[18F] (centres unmarked) [Compound 5]
Background, organ uptake and defluorination (MPO [2]): high heart and liver uptake and high background were observed from defluorination
